Data: ChEMBL document CHEMBL1201862, “PubChem BioAssay data set” (2004)
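Briefly, cells in 96-well plates were exposed to five compound concentrations for 48 h, and endpoints were estimated by linear interpolation. The concentration for 50% growth inhibition is given as GI50.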 The source made the active and inactive calls. Cut-off read from the data, not from the text of the source: active = GI50 up to about 1.1 µM and inactive = higher.

Assays:
Assay in all cases: NCI-60 cell line screen, 48 h
NCI-H23 = test system: NCI-H23
OVCAR-5 = test system: OVCAR-5
ACHN = test system: ACHN
SF-295 = test system: SF-295
SNB-19 = test system: SNB-19
CCRF-CEM = test system: CCRF-CEM
MDA-MB-435 = test system: MDA-MB-435
A549 = test system: A549
RXF 393 = test system: RXF 393
786-0 = test system: 786-0
HOP-62 = test system: HOP-62
UACC-62 = test system: UACC-62
SF-268 = test system: SF-268
SK-MEL-5 = test system: SK-MEL-5
MDA-N = test system: MDA-N
SK-OV-3 = test system: SK-OV-3
BT-549 = test system: BT-549
SN12C = test system: SN12C
SK-MEL-2 = test system: SK-MEL-2
COLO 205 = test system: COLO 205
HCT-116 = test system: HCT-116
HCT-15 = test system: HCT-15
SF-539 = test system: SF-539
SK-MEL-28 = test system: SK-MEL-28
MDA-MB-231 = test system: MDA-MB-231
KM12 = test system: KM12
K562 = test system: K562
NCI/ADR-RES = test system: NCI/ADR-RES
IGROV-1 = test system: IGROV-1
PC-3 = test system: PC-3
HOP-92 = test system: HOP-92
HT-29 = test system: HT-29
SW-620 = test system: SW-620
EKVX = test system: EKVX
OVCAR-4 = test system: OVCAR-4
NCI-H460 = test system: NCI-H460
MOLT-4 = test system: MOLT-4
LOX IMVI = test system: LOX IMVI
NCI-H226 = test system: NCI-H226
Hs-578T = test system: Hs-578T
OVCAR-8 = test system: OVCAR-8
DU-145 = test system: DU-145
M14 = test system: M14
UACC-257 = test system: UACC-257
UO-31 = test system: UO-31
HCC 2998 = test system: HCC 2998
TK-10 = test system: TK-10
NCI-H522 = test system: NCI-H522
MCF7 = test system: MCF7
CAKI-1 = test system: CAKI-1
T47D = test system: T47D
OVCAR-3 = test system: OVCAR-3
SNB-75 = test system: SNB-75
HL-60 = test system: HL-60
A498 = test system: A498
RPMI-8226 = test system: RPMI-8226
U-251 = test system: U-251

With `O=C1c2ccccc2/C(=N\c2ccc3ccccc3c2)C1(C1=C(c2ccccc2)/C(=N/c2ccc3ccccc3c2)c2ccccc21)c1ccccc1` (configuration not stated) as the compound, how does the GI50 (NCI-H23) read?
The GI50 was 4.09 µM (inactive).

What about the GI50 (OVCAR-5) of the same compound?
Its GI50 is > 57.8 µM (inactive).

What about the GI50 (ACHN) of the same compound?
The GI50 was 2.53 µM (inactive).

And the GI50 (SF-295)?
Its GI50 is 10.9 µM (inactive).

And the GI50 (SNB-19)?
Its GI50 is 73.3 µM (inactive).

What about the GI50 (CCRF-CEM) of the same compound?
Its GI50 is 11.2 µM (inactive).

What about the GI50 (MDA-MB-435) of the same compound?
The GI50 was 3.33 µM (inactive).

And the GI50 (A549)?
Its GI50 is 11.1 µM (inactive).

What about the GI50 (RXF 393) of the same compound?
Its GI50 is > 24 µM (inactive).

And the GI50 (786-0)?
Its GI50 is 4.8 µM (inactive).

What about the GI50 (HOP-62) of the same compound?
The GI50 was 12.5 µM (inactive).

And the GI50 (UACC-62)?
The GI50 was 5.15 µM (inactive).

What about the GI50 (SF-268) of the same compound?
The GI50 was 4.16 µM (inactive).

What about the GI50 (SK-MEL-5) of the same compound?
Its GI50 is 2.17 µM (inactive).

And the GI50 (MDA-N)?
Its GI50 is 3.89 µM (inactive).

What about the GI50 (SK-OV-3) of the same compound?
The GI50 was 22.1 µM (inactive).

And the GI50 (BT-549)?
Its GI50 is 5.62 µM (inactive).

What about the GI50 (SN12C) of the same compound?
Its GI50 is 9.48 µM (inactive).

And the GI50 (SK-MEL-2)?
The GI50 was 11.9 µM (inactive).

What about the GI50 (COLO 205) of the same compound?
The GI50 was 6.34 µM (inactive).

And the GI50 (HCT-116)?
The GI50 was 3.85 µM (inactive).

What about the GI50 (HCT-15) of the same compound?
The GI50 was 2.55 µM.

And the GI50 (SF-539)?
Its GI50 is 6.15 µM (inactive).

What about the GI50 (SK-MEL-28) of the same compound?
The GI50 was 6.27 µM (inactive).

What about the GI50 (MDA-MB-231) of the same compound?
The GI50 was 15.3 µM (inactive).

And the GI50 (KM12)?
Its GI50 is 4.14 µM (inactive).

What about the GI50 (K562) of the same compound?
The GI50 was 4.22 µM (inactive).

What about the GI50 (NCI/ADR-RES) of the same compound?
Its GI50 is 6.01 µM (inactive).

And the GI50 (IGROV-1)?
Its GI50 is 6.34 µM (inactive).

And the GI50 (PC-3)?
The GI50 was 4.41 µM (inactive).

And the GI50 (HOP-92)?
Its GI50 is > 100 µM (inactive).

What about the GI50 (HT-29) of the same compound?
Its GI50 is 3.48 µM (inactive).

What about the GI50 (SW-620) of the same compound?
Its GI50 is 36.6 µM (inactive).

What about the GI50 (EKVX) of the same compound?
Its GI50 is 28.8 µM (inactive).

And the GI50 (OVCAR-4)?
The GI50 was 5.37 µM (inactive).

What about the GI50 (NCI-H460) of the same compound?
The GI50 was 3.32 µM (inactive).

And the GI50 (MOLT-4)?
Its GI50 is 2.58 µM (inactive).

What about the GI50 (LOX IMVI) of the same compound?
Its GI50 is 4.01 µM (inactive).

And the GI50 (NCI-H226)?
Its GI50 is 7.21 µM (inactive).

And the GI50 (Hs-578T)?
The GI50 was 23.2 µM (inactive).

And the GI50 (OVCAR-8)?
The GI50 was 6.89 µM (inactive).

And the GI50 (DU-145)?
Its GI50 is 5.57 µM (inactive).

What about the GI50 (M14) of the same compound?
The GI50 was 4.02 µM (inactive).

What about the GI50 (UACC-257) of the same compound?
The GI50 was 5.73 µM (inactive).

And the GI50 (UO-31)?
Its GI50 is 4.65 µM (inactive).

And the GI50 (HCC 2998)?
The GI50 was 11.5 µM (inactive).

What about the GI50 (TK-10) of the same compound?
Its GI50 is 45.5 µM (inactive).

And the GI50 (NCI-H522)?
Its GI50 is 5.4 µM (inactive).

And the GI50 (MCF7)?
The GI50 was 4.05 µM (inactive).

What about the GI50 (CAKI-1) of the same compound?
The GI50 was 7.53 µM (inactive).

And the GI50 (T47D)?
Its GI50 is 5.5 µM (inactive).

What about the GI50 (OVCAR-3) of the same compound?
Its GI50 is 73.3 µM (inactive).

What about the GI50 (SNB-75) of the same compound?
Its GI50 is 7.67 µM (inactive).

What about the GI50 (HL-60) of the same compound?
Its GI50 is 4.5 µM (inactive).

And the GI50 (A498)?
The GI50 was > 10 µM (inactive).

What about the GI50 (RPMI-8226) of the same compound?
Its GI50 is 3.64 µM (inactive).

And the GI50 (U-251)?
The GI50 was 9.75 µM (inactive).
